Source: patent EP3270157B1, “SCREENING ASSAY FOR SWEETNESS” (Firmenich SA, priority 2016, dated 2018)
Like-named read-outs stand apart in the source and are kept apart here.

Biological target: T1, T1R2/T1R3 receptor (Homo sapiens, UniProt Q7RTX0+Q8TE23)
T1 sequence (Q8TE23 20-839): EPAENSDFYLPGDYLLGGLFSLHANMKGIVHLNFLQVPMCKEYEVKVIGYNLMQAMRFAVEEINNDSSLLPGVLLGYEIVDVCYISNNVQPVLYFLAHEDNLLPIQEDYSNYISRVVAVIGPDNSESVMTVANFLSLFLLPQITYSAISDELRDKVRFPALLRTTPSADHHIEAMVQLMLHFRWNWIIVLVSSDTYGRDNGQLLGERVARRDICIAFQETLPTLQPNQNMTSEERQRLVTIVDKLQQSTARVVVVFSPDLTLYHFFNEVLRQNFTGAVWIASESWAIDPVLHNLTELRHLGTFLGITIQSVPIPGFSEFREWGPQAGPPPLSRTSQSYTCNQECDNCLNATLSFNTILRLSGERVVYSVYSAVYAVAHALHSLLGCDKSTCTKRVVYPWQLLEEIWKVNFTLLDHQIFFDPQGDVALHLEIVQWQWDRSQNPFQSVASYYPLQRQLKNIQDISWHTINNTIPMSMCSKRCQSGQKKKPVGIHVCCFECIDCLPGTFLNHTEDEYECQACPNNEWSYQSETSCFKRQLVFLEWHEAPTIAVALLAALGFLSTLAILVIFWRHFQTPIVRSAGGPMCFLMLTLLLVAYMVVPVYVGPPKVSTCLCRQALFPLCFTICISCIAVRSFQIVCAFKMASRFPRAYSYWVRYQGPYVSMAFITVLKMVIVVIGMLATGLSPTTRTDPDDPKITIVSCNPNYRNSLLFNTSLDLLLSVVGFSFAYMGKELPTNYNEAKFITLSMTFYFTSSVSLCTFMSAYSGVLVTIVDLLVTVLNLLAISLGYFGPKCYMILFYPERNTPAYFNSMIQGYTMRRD
T1 sequence (Q7RTX0 21-852): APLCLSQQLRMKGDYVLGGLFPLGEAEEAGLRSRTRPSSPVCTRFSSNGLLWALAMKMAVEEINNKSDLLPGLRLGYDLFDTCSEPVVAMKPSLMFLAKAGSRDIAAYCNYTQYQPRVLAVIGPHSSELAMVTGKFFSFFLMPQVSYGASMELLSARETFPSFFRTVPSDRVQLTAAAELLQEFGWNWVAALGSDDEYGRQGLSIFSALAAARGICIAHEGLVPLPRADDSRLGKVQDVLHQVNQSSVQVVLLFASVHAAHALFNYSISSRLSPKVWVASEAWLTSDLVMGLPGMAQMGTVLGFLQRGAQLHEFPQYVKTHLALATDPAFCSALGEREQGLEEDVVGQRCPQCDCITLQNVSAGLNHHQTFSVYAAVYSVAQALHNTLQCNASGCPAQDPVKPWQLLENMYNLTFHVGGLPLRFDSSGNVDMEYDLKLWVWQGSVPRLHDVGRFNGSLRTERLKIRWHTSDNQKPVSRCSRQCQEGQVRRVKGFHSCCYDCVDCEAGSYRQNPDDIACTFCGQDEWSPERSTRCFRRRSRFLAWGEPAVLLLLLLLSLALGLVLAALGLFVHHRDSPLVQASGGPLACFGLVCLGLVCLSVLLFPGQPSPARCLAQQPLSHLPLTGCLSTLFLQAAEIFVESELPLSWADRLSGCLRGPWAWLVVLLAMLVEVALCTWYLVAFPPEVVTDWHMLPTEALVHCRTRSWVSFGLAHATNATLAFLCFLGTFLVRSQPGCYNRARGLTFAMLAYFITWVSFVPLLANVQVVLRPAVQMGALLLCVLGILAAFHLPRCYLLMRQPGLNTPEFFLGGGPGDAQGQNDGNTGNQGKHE
Settings: for sensitivity of the assay to initiate receptor internalisation: comparison among the sweet compounds tested; for increase of chemiluminescence signal / internalisation response with concentration: shape of dose-response curve, Fig. 6A and 6B

[1] = Clone #1057 cells, % (w/v), Fig. 6
[2] = Clone #1057 cells, 3 h at 20°C, n=3, Fig. 6

increase of chemiluminescence signal / internalisation response with concentration	Structure (SMILES)	concentration at which the maximum response (ΔF/Fmax) was reached [1]	sensitivity of the assay to initiate receptor internalisation (Fig. 6)	other results
–	CC1=CC(=O)NS(=O)(=O)O1 [acesulfame-K]	–	–	concentration at which the maximum response (ΔF/Fmax) was reached: 5.5%
rather slow increase	O=C(CO)[C@@H](O)[C@H](O)[C@H](O)CO [fructose]	9%	highest sensitivity	maximum level of chemiluminescence (ΔF/Fmax) (human, hek293 cells, 3 h): 5.2
–	OC[C@@H](O)[C@@H](O[C@H]1O[C@H](CO)[C@@H](O)[C@H](O)[C@H]1O)[C@H](O)[C@@H](O)CO [maltitol]	17.0%	–	maximum level of chemiluminescence (ΔF/Fmax) [2]: nearly equal
–	OC[C@@H](O)[C@@H](O)[C@H](O)[C@H](O)CO [mannitol]	7.7%	–	maximum level of chemiluminescence (ΔF/Fmax) [2]: nearly equal
–	OC[C@H]1O[C@H](O[C@]2(CCl)O[C@H](CCl)[C@@H](O)[C@@H]2O)[C@H](O)[C@@H](O)[C@H]1Cl [sucralose]	15%	high sensitivity	concentration at which receptor internalisation responses were initiated (Clone #1057 cells, Fig. 6): already observed at the lowest concentration tested
rather slow increase	OC[C@H]1O[C@@](CO)(O[C@H]2O[C@H](CO)[C@@H](O)[C@H](O)[C@H]2O)[C@@H](O)[C@@H]1O [sucrose]	–	–	–

Structure (SMILES)	increase of chemiluminescence signal / internalisation response with concentration	concentration at which the maximum response (ΔF/Fmax) was reached [1]	sensitivity of the assay to initiate receptor internalisation (Fig. 6)	other results
OC[C@H]1O[C@H](O[C@H]2[C@H](O)[C@@H](O)[C@H](O)O[C@@H]2CO)[C@H](O)[C@@H](O)[C@@H]1O [maltose]	steep increase	16.5%	lowest sensitivity of the natural sugars tested	–
